The target in assay [1] is T1, Peroxisome proliferator-activated receptor gamma (Homo sapiens, UniProt P37231).
T1 sequence (P37231 whole entry): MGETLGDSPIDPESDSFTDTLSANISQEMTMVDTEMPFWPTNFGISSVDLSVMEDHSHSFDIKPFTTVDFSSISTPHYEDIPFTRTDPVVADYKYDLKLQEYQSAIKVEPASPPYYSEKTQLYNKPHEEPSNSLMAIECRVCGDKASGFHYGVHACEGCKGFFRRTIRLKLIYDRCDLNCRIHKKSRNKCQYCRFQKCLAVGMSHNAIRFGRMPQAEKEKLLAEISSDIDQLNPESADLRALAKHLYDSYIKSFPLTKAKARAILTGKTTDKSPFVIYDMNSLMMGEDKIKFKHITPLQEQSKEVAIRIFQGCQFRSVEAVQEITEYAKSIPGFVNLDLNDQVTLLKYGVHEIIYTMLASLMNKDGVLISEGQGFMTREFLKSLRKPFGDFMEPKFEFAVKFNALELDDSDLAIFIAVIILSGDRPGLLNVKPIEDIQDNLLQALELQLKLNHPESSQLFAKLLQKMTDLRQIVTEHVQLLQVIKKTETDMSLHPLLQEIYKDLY
As to the kind of experiment: PPARg ligand-binding domain binders, dose response, PPARg partial agonist project, biochemical, TR-FRET, LanthaScreen (AID 504446). In general terms: In TR-FRET formats the signal depends on donor and acceptor labels being close together.

The target of assay [2] is T1, Peroxisome proliferator-activated receptor gamma. Nature of the assay: PPARg ligand-binding domain binders, dose response, PPARg partial agonist project, biochemical, fluorescence polarization, PolarScreen (AID 504453). For orientation: In fluorescence polarisation assays a small probe gives low polarisation when free and higher when bound to something large.
The target is the same in assay [3]. As to the kind of experiment: PPARg partial agonists, dose response, cell-based, luminescence, assay provider (AID 504447). The class given is functional.
In assay [4] the target is Intestinal-type alkaline phosphatase (Homo sapiens, UniProt P09923). Nature of the assay: human intestinal alkaline phosphatase activators, dose response, biochemical, luminescence, uHTS hits (AID 463120). The class given is functional.
The target of the next assay is Hexokinase-1 (Homo sapiens, UniProt P19367). As to the kind of experiment: hexokinase 1 activators, dose response, selectivity assay for HKDC1 activator project, biochemical (AID 504762). The format is functional.
Assay [5] has as its target T2, Apoptotic protease-activating factor 1 (Homo sapiens, UniProt O14727).
T2 sequence (O14727 whole entry): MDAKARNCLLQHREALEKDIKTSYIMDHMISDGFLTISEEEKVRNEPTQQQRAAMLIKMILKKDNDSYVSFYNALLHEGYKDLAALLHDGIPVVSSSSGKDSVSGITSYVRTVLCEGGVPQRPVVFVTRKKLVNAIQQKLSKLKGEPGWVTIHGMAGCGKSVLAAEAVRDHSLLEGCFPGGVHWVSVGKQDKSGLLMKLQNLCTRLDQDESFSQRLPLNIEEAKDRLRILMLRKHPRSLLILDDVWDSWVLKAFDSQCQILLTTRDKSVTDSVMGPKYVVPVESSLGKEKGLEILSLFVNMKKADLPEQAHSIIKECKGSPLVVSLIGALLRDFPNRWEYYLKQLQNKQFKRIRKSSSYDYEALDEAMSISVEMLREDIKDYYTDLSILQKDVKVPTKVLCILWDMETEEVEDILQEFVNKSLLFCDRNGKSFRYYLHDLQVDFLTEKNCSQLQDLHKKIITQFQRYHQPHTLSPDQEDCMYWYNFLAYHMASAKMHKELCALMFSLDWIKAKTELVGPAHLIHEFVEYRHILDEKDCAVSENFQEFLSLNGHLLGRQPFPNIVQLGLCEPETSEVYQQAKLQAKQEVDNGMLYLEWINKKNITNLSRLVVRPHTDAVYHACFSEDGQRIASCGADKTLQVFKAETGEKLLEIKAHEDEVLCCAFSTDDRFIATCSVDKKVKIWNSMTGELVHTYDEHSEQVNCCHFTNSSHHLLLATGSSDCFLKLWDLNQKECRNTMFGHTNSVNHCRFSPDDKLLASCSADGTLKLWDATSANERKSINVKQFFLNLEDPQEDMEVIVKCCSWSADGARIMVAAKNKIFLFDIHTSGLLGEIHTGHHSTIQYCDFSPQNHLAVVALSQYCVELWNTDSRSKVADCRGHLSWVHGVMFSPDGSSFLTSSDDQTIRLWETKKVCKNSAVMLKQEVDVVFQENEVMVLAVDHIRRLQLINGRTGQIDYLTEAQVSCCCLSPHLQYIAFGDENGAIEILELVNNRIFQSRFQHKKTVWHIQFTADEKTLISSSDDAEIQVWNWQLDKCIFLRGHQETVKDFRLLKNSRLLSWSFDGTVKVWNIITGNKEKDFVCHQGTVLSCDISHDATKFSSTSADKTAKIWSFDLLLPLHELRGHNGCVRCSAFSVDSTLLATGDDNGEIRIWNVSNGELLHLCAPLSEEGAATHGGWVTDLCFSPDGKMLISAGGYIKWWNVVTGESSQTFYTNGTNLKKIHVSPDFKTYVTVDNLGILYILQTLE
The format is functional.

In the next assay the test system is Vero. Nature of the assay: Vero cell cytotoxicity, cytotoxicity control for flavivirus capping enzyme inhibitors (AID 588742). The class given is functional. Conditions: Chlorocebus sabaeus.
The target in a further assay is T3, Protein RecA (Mycobacterium tuberculosis, UniProt P9WHJ3).
T3 sequence (P9WHJ3 whole entry): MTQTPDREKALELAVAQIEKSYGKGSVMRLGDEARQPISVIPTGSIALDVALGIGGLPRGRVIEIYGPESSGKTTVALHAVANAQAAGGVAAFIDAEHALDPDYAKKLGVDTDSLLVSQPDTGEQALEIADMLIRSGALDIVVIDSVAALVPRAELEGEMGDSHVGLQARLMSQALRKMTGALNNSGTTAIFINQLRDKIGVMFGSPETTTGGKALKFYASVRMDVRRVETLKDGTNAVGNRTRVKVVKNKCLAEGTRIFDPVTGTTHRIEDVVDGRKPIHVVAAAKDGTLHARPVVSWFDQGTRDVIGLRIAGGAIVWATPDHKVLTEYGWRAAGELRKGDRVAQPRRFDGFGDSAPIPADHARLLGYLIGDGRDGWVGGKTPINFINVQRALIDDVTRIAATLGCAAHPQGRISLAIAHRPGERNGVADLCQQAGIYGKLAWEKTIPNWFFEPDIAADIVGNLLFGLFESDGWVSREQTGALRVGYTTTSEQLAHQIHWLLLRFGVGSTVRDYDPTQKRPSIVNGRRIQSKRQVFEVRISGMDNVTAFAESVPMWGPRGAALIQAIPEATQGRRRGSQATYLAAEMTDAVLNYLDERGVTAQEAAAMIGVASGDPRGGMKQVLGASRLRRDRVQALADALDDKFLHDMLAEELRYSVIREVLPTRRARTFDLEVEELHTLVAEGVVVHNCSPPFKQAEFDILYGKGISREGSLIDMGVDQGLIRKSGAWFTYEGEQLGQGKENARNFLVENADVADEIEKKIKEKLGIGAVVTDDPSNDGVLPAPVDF
As to the kind of experiment: Fluorescence Cell-Free Homogeneous Dose Retest to Identify Inhibitors of RecA-Intein Splicing Activity. [Related pubchem assays (depositor defined):AID2097, AID2223, AID489010, AID492950]. The class given is functional.

The next assay deals with Genome polyprotein (dengue virus type 2, UniProt P29990). Nature of the assay: Dengue-2 NS5 methyltransferase inhibitors, primary screen, biochemical, confirmation dose response (AID 588689). The class given is functional.
The next assay concerns the target T4, Hexokinase HKDC1 (Homo sapiens, UniProt Q2TB90).
T4 sequence (Q2TB90 whole entry): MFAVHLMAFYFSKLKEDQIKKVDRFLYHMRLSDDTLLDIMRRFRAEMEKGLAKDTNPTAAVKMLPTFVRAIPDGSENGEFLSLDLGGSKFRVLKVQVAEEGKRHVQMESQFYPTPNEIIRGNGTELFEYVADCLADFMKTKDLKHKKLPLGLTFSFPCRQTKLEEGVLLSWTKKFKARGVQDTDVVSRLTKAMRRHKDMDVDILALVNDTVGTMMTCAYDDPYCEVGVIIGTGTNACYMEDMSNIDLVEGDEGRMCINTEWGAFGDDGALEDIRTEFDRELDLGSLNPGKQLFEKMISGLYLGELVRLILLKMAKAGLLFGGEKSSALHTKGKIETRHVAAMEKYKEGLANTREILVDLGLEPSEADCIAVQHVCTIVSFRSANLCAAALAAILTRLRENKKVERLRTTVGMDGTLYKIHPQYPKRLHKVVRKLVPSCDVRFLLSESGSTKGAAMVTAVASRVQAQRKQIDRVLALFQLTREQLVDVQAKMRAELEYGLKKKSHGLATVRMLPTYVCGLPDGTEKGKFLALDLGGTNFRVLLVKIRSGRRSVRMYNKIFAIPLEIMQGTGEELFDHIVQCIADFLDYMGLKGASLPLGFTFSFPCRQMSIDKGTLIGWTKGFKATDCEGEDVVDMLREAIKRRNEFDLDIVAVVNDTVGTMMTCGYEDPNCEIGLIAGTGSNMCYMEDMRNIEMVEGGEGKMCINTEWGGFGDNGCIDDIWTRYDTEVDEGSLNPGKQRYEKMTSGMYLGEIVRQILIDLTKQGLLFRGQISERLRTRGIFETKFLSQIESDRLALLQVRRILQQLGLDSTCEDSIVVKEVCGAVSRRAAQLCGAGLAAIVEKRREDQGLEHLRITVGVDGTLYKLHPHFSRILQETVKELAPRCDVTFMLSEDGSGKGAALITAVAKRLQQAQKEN
As to the kind of experiment: HKDC1 hexokinase activators, dose response, biochemical, W721R variant (AID 504730). The format is functional.

Assay [6] deals with T5, Runt-related transcription factor 1/Core-binding factor subunit beta (Homo sapiens, UniProt Q01196+Q13951). As to the kind of experiment: inhibitors of RUNX1 Runt–CBFb-SMMHC binding, primary screen, biochemical, FRET, Cerulean-Runt, Venus-CBFb-SMMHC, uHTS (AID 1434).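 Further: partner is the CBFb-SMMHC leukemia fusion protein rather than wild-type CBFb.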 The format is protein assay.
Assay [7] addresses T5, Runt-related transcription factor 1/Core-binding factor subunit beta. Nature of the assay: inhibitors of RUNX1 Runt–CBFb-SMMHC binding, biochemical, TR-FRET (AID 1438). The class given is protein assay.
Assay [8] deals with T6, G-protein coupled receptor 35 (Homo sapiens, UniProt Q9HC97). Nature of the assay: SAR analysis of Agonists of the GPR35 Receptor using an Image-Based Assay - Set 4. [Related pubchem assays (depositor defined):AID2013, AID2026]. The class given is functional.
The target of assay [9] is T7, Cannabinoid receptor 2 (Homo sapiens, UniProt P34972). Nature of the assay: SAR analysis of antagonists of the Cannabinoid Receptor 2 using an Image-Based Assay - Set 3. [Related pubchem assays (depositor defined):AID2013, AID2026]. The class given is functional.
Assay [10] has as its target G-protein coupled receptor 55 (Homo sapiens, UniProt Q9Y2T6). As to the kind of experiment: SAR Analysis of Selective Antagonists of GPR55 using an Image-Based Assay - Set 4. [Related pubchem assays (depositor defined):AID2013, AID2026]. The format is functional.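 Further: antagonism of response to 5 µM lysophosphatidylinositol agonist.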
For assay [11], the target named is T6, G-protein coupled receptor 35. As to the kind of experiment: SAR analysis of Antagonists of the GPR35 Receptor using an Image-Based Assay - Set 6. [Related pubchem assays (depositor defined):AID2013, AID2026]. The class given is functional.
For assay [12], the target named is T8, Cannabinoid receptor 1 (Homo sapiens, UniProt P21554). Nature of the assay: SAR analysis of antagonists of the Cannabinoid Receptor 1 using an Image-Based Assay - Set 4. [Related pubchem assays (depositor defined):AID2013, AID2026]. The format is functional.
Assay [13] deals with T8, Cannabinoid receptor 1. As to the kind of experiment: SAR analysis of agonists of the Cannabinoid Receptor 1 using an Image-Based Assay - Set 4. [Related pubchem assays (depositor defined):AID2013, AID2026]. The format is functional.
Assay [14] has as its target T7, Cannabinoid receptor 2. As to the kind of experiment: SAR analysis of agonists of the Cannabinoid Receptor 2 using an Image-Based Assay - Set 3. [Related pubchem assays (depositor defined):AID2013, AID2026]. The format is functional.

The structures appear in SMILES notation. Calls of active or inactive are those of the source.

One may read the IC50 as the concentration at which inhibition is half-maximal. One may read the EC50 as the concentration giving half of the maximal effect. Usually CC50 stands for the concentration giving 50% cytotoxicity.

T7 sequence (P34972 whole entry): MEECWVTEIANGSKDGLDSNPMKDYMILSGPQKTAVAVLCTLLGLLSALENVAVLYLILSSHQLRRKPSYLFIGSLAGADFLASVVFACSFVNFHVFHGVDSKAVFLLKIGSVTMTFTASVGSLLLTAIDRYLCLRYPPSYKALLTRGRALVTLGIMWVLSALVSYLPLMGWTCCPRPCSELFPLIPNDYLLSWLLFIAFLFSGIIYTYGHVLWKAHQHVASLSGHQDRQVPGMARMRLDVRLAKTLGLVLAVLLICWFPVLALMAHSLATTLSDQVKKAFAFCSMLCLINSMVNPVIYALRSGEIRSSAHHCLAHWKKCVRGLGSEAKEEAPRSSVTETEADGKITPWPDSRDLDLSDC
T5 sequence (Q01196 whole entry, the tested form may be a part): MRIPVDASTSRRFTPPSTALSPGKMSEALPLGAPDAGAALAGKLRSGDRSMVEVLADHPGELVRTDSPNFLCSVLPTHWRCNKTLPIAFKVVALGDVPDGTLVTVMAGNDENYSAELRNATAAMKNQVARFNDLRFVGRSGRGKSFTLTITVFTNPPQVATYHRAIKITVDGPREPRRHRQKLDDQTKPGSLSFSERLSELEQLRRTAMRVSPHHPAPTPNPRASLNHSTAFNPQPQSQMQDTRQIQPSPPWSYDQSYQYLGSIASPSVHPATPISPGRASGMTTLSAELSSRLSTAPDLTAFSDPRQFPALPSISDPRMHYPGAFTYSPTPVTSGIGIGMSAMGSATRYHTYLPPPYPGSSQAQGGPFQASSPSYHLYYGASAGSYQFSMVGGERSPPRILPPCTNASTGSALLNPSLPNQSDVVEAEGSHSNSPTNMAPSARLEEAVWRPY
T5 sequence (Q13951 whole entry, the tested form may be a part): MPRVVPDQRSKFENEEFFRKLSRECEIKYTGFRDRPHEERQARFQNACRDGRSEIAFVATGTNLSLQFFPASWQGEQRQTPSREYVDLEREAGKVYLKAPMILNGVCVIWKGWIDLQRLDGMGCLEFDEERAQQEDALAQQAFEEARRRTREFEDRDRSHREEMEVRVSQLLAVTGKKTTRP
T8 sequence (P21554 whole entry): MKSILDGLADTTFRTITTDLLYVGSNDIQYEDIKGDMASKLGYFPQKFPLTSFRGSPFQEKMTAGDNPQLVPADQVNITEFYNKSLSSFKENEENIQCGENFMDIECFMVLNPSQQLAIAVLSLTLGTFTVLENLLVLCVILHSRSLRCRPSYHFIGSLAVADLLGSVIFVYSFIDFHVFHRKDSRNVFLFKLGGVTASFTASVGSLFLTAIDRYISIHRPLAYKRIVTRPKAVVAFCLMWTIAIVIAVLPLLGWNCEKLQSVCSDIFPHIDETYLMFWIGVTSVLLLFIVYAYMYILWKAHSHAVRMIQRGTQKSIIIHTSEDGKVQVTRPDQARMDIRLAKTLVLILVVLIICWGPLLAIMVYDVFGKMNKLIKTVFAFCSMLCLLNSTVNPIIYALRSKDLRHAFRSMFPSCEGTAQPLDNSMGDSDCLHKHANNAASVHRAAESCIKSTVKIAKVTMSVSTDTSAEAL
T6 sequence (Q9HC97 whole entry): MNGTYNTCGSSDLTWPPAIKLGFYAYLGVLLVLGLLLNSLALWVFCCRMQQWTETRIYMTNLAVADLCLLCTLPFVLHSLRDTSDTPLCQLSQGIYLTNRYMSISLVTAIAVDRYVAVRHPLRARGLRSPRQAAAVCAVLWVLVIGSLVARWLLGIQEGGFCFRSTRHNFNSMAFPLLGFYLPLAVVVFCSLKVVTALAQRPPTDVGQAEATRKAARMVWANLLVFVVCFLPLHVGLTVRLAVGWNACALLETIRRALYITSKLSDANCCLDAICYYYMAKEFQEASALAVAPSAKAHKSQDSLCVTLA
Sequence of Hexokinase-1 (P19367 whole entry): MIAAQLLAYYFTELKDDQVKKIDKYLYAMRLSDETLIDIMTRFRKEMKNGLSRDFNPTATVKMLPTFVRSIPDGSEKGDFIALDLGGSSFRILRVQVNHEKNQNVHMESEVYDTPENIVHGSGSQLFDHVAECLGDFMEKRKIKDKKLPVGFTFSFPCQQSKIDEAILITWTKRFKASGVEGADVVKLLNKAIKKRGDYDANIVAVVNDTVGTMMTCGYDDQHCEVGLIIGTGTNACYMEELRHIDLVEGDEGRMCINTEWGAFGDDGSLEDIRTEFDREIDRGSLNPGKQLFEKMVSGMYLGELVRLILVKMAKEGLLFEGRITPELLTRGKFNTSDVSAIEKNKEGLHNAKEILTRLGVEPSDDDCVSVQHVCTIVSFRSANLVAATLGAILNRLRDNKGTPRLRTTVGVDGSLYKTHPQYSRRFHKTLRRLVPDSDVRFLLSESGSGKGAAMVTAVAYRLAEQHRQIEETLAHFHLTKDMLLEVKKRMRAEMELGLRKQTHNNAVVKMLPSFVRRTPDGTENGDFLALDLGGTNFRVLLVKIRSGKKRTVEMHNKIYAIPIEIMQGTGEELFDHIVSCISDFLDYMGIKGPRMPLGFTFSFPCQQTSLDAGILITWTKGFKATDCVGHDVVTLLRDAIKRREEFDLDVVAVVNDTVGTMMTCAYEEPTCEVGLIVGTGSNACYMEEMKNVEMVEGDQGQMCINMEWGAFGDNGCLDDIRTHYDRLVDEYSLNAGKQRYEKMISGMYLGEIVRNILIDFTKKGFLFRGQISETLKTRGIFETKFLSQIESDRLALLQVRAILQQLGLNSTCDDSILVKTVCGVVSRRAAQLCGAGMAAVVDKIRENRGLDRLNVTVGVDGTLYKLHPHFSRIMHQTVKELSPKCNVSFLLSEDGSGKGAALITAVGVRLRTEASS
Sequence of Intestinal-type alkaline phosphatase (P09923 whole entry): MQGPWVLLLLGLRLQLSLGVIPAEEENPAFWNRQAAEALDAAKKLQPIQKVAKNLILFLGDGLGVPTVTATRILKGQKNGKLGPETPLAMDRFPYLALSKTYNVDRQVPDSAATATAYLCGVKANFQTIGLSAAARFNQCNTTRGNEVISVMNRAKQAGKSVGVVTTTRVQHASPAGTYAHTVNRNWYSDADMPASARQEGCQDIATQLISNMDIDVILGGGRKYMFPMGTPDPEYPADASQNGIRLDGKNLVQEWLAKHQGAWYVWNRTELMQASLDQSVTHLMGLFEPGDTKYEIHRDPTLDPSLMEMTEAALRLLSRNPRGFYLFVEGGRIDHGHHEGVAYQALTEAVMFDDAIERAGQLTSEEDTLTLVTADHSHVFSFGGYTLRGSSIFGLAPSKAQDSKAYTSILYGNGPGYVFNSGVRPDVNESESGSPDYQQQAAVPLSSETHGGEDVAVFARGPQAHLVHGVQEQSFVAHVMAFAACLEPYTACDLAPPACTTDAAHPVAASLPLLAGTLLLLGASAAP
Sequence of Genome polyprotein (P29990 2492-3391 limits assumed): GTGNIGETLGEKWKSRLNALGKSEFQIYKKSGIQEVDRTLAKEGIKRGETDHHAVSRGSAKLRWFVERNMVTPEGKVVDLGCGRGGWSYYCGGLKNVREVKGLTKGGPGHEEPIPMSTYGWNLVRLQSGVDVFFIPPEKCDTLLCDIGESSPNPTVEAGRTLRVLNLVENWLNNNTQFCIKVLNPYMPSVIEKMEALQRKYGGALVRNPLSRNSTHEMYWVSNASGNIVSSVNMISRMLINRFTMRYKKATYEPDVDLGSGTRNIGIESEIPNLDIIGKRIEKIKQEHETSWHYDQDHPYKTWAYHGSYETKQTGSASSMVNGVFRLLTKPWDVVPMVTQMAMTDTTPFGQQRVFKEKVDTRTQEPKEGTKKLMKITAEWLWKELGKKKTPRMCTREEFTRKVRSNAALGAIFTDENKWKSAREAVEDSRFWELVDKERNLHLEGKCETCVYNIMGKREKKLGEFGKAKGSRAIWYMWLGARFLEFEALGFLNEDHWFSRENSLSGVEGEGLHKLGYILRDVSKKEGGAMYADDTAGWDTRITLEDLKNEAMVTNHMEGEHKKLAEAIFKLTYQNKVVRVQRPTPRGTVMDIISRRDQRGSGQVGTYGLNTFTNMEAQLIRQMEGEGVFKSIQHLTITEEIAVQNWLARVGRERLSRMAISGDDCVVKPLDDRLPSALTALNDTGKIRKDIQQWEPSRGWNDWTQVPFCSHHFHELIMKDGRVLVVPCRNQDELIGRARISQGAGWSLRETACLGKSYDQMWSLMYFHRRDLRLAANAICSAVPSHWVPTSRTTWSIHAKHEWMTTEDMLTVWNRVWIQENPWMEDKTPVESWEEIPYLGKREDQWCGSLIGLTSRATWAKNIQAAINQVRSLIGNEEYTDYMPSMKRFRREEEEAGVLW
Sequence of G-protein coupled receptor 55 (Q9Y2T6 whole entry): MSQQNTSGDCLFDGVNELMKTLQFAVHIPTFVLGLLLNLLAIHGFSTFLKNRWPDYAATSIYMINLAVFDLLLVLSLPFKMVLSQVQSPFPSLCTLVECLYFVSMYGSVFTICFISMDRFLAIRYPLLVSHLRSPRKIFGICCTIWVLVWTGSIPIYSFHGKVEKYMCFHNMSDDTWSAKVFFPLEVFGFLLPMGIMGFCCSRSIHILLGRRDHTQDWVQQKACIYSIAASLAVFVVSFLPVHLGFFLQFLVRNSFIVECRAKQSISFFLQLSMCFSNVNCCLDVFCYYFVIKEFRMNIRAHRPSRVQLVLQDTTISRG

Consider `CC(=O)N1N=C(c2ccccc2)CC1c1cn(Cc2ccccc2)c2ccccc12` (centres undefined), for which the concentration for half-maximal inhibition (IC50) was 0.748 µM (active) in assay [1] and 2 µM (active) in assay [2]. Besides, the EC50 in assay [3] is 1.2 µM (active).

Take `CCCCCCCn1c(=N)n(CC(=O)c2ccco2)c2ccccc21`: the EC50 in assay [4] was > 100 µM (inactive).

Take `O=C1C(C2=C(O)c3ccccc3C2=O)=Nc2ccccc21`: the results for the EC50 on Hexokinase-1, at Protein RecA and on Hexokinase HKDC1 were 37.1 µM (inactive), 1.6 µM (active) and 24.7 µM (inactive), respectively. The IC50 in assay [5] was 1.31 µM (active); on Genome polyprotein it was 56.9 µM (active). Further, the CC50 in the assay with Vero is 26.6 µM (active).

`Cc1cc(C)cc(Oc2nc3c(C)cccn3c(=O)c2/C=C(\C#N)C(=O)NC2CCS(=O)(=O)C2)c1` (centres undefined): the IC50 is 4.95 µM (active) in [6] and 68 µM (inactive) in assay [7].

As to `Cc1nc(N2CCN(C(=O)NCc3ccccc3)CC2)c2c3c(sc2n1)CCCC3`, the EC50 (in assay [8]; on Cannabinoid receptor 1 [13]; at Cannabinoid receptor 2 [14]) was > 32 µM (inactive) each time. In addition, the IC50 was > 15.2 µM (inactive) on Cannabinoid receptor 2 [9], 13 µM (inactive) in assay [10], > 32 µM (inactive) in assay [11] and 6.66 µM (active) at Cannabinoid receptor 1 [12].

Values taken from ChEMBL document CHEMBL1201862, “PubChem BioAssay data set” (2004).
